Among the data in the Deep4Chem optical property database are photoluminescence quantum yield values, retold here.

The nature of the data set: photoluminescence quantum yield (fraction); solvent given as SMILES.

With `CN(C)c1ccc(C(=O)Nc2ccc([N+](=O)[O-])cc2)cc1`, the photoluminescence quantum yield is, setting by setting: (in C1CCCCC1) 0.0001; (in C1CCOC1) 0.0003; (in CC#N) 0.0002; (in CCOCC) 0.0006.
Turning to `CN(C)c1ccc(C2=Nc3sc4cc(F)ccc4[n+]3[B-](F)(F)O2)cc1`, the photoluminescence quantum yield runs as follows: (in C1CCOC1) 0.72; (in CC#N) 0.13; (in CC(C)=O) 0.23; (in Cc1ccccc1) 0.85; (in ClCCl) 0.74.
For `CC[N+](CC)=c1ccc2nc3c(cc(NCCC(=O)NC(C)C(=O)OC)c4ccccc43)oc-2c1` (centres undefined), the photoluminescence quantum yield by setting is: (in CCO) 0.18; (in O) 0.13.
`COc1c2ccccc2c(OC)c2c1c1cc(F)ccc1n2C`: the photoluminescence quantum yield is, setting by setting: (in C1CCCCC1) 0.39; (in CC#N) 0.34; (in CO) 0.33; (in ClCCl) 0.37.
`Nc1ccc2cn[nH]c2c1`: the photoluminescence quantum yield is, setting by setting: (in C1CCCCC1) 0.34; (in CC#N) 0.33; (in CO) 0.31; (in O) 0.39.
Consider `CC1=[N+]2C(=C(c3ccc(C(=O)c4ccccc4)cc3)c3ccc(C)n3[B-]2(F)F)C=C1c1cc2n(c1)[B-](F)(F)[N+]1=CC=CC1=C2c1c(C)cc(C)cc1C`, for which the photoluminescence quantum yield came out at 0.47 (in C1CCCCC1) and 0.13 (in CCOC(C)=O).
As for `COC(=O)C(Cc1ccc2oc(-c3ccc(-n4c5ccccc5c5ccccc54)cc3)nc2c1)NC(=O)OC(C)(C)C` (centres undefined), the photoluminescence quantum yield runs as follows: (in C1CCCCC1) 0.94; (in C1CCOC1) 0.53; (in C1COCCO1) 0.62; (in CC1CCCO1) 0.52; (in CC#N) 0.46; (in CC(C)(C)O) 0.81. The photoluminescence quantum yield (in CC(C)=O) is 0.44; the photoluminescence quantum yield (in CC(C)CC(C)(C)C) was 0.55; the photoluminescence quantum yield (in CC(C)O) stood at 0.59; the photoluminescence quantum yield (in CC(O)CO) came to 0.55; the photoluminescence quantum yield (in CCCCCCCO) came to 0.65; the photoluminescence quantum yield (in CCCCCCO) was 0.73. The photoluminescence quantum yield by setting is: (in CCCCCO) 0.77; (in CCCCO) 0.69; (in CCO) 0.63; (in CCOC(C)=O) 0.54; (in CCOCC) 0.56; (in CN(C)C=O) 0.58. The photoluminescence quantum yield (in CO) came out at 0.36, the photoluminescence quantum yield (in CS(C)=O) was found to be 0.47, the photoluminescence quantum yield (in Cc1ccccc1) was 0.69 and the photoluminescence quantum yield (in OCCO) is 0.52.
Under “in ClCCl”, `C(S/C=C/c1ccc(-c2ccc(/C=C/SC=C3CCCC3)cc2)cc1)=C1CCCC1` displayed a photoluminescence quantum yield of 0.182.
`CCC12N=N[C@](CC)(C3C4CCC(C4)C31)C1[C@@H]3CC[C@@H](C3)[C@H]12` (some centres undefined) registered a photoluminescence quantum yield (in CC#N) of 0.19.
`C/C(=C\c1ccc(C)cc1)c1nc2ccccc2s1`: the photoluminescence quantum yield is, setting by setting: (in C1CCCCC1) 0.003; (in CO) 0.001.
For the setting “in ClCCl”, `CCN(CC)c1ccc2c(-c3ccccc3C(=O)O)c3c([o+]c2c1)/C(=C/c1ccc(N(C)C)s1)CCC3` returned a photoluminescence quantum yield of 0.04.
Still for that read-out and setting: with `COc1ccc(C2=C(C)C3=C(c4c(-c5ccccn5)nc5ccccn45)c4c(C)cc(C)n4[B-](F)(F)[N+]3=C2C)cc1` the figure was 0.212; with `COc1ccc(C2=Cc3ccccc3[Si]2(c2ccccc2)c2ccccc2)cc1`, 0.99.
In turn, `CCCCCCCCOc1ccc(-c2c3c4n(c(-c5ccc(OCCCCCCCC)cc5)c3c3n2[B-](F)(F)[n+]2c(ccc5cc(C(C)(C)C)ccc52)C=3C#N)[B-](F)(F)[n+]2c(ccc3cc(C(C)(C)C)ccc32)C=4C#N)cc1` registered a photoluminescence quantum yield (in ClC(Cl)Cl) of 0.59.
`COc1ccc(C2=N/C(=C\c3ccc(C#N)cc3)C(=O)N2)cc1OC` showed a photoluminescence quantum yield (in C1COCCO1) of 0.189.
With `CCCCCCCCc1ccc(-c2c3cc(-c4cc(CCCCCCCC)c(-c5ccc(-c6sc(/C=C7\SC(N8CCCCC8)=NC7=O)cc6CCCCCCCC)s5)s4)sc3c(-c3ccc(CCCCCCCC)s3)c3cc(-c4cc(CCCCCCCC)c(-c5ccc(-c6sc(/C=C7\SC(N8CCCCC8)=NC7=O)cc6CCCCCCCC)s5)s4)sc23)s1`, the photoluminescence quantum yield runs as follows: (in C1CCOC1) 0.214; (in Cc1ccccc1) 0.211; (in ClC(Cl)Cl) 0.128; (in ClCCl) 0.144; (in Clc1ccccc1) 0.186.
`CCCCCCCCCCC(CCCCCCCCCC)Cn1c2cc(-c3ccc(C(C)(C)C)cc3)c3cccc4c5ccc6c7cc(-c8cc(C(C)(C)C)cc(C(C)(C)C)c8)n8c7c(c7cc1c(c5c76)c2c34)=C1C=CC(c2cc(C(C)(C)C)cc(C(C)(C)C)c2)=[N+]1[B-]8(F)F` yielded a photoluminescence quantum yield (in Cc1ccccc1) of 0.008.
Still for that read-out and setting: with `N#Cc1ccc2c(c1)C1(c3cc(C#N)ccc3-2)c2ccccc2N(c2ccccc2)c2ccccc21` the figure was 0.47.
`Cc1ccc2c(c1)C1(c3ccccc3-c3ccccc31)c1cc(C)ccc1N2c1ccc(-c2nc(-c3ccccc3)cc(-c3ccccc3)n2)cc1` had a photoluminescence quantum yield (in O=P(c1ccccc1)(c1ccccc1)c1ccc2oc3ccc(P(=O)(c4ccccc4)c4ccccc4)cc3c2c1) of 0.87.
Turning to `CC(=O)c1c2c(cc3ccc(N(C)C)cc13)CCC2`, the photoluminescence quantum yield (in C1CCCCC1) came out at 0.45; the photoluminescence quantum yield (in C1CCOC1) was found to be 0.75; the photoluminescence quantum yield (in C1COCCO1) was found to be 0.46; the photoluminescence quantum yield (in CC#N) turned out to be 0.99; the photoluminescence quantum yield (in CCO) worked out at 0.05; the photoluminescence quantum yield (in CS(C)=O) came to 0.85. The same compound yielded a photoluminescence quantum yield (in Cc1ccccc1) of 0.62, a photoluminescence quantum yield (in ClC(Cl)Cl) of 0.77 and a photoluminescence quantum yield (in ClCCl) of 0.99.
On to `CCC(C)(C)c1ccc2c(c1)C(CCOC)(CCOC)c1cc(-c3ccc(-c4ccc5c(c4)C(CCOC)(CCOC)c4cc(C(C)(C)CC)ccc4-5)cc3)ccc1-2`, for which the photoluminescence quantum yield (in C1CCCCC1) was 0.9.
`C=CC12N=N[C@](C=C)(C3C4CCC(C4)C31)C1[C@@H]3CC[C@@H](C3)[C@H]12` (some centres undefined): where the note is “in CC#N”, the photoluminescence quantum yield is 0.16.
With `CCCCCCCCN1c2ccc(C#Cc3ccc(F)cc3)cc2Sc2cc(C=O)ccc21`, the photoluminescence quantum yield worked out at 0.64 (in C1CCOC1); 0.24 (in CC#N); 0.48 (in CCCCCC); 0.07 (in CO); 0.75 (in CS(C)=O); 0.52 (in Cc1ccccc1). The compound further came in with a photoluminescence quantum yield (in ClC(Cl)Cl) of 0.4.
`c1cc2ccc3cc4[nH]ccc4c4ccc(c1)c2c34`: under “in CCOC(C)=O”, the photoluminescence quantum yield amounted to 0.95.
Take `c1ccc(-c2cc(-c3nnc(-c4ccc(N5c6ccccc6Oc6ccccc65)cc4)o3)c(-c3ccccc3)c(-c3ccccc3)c2-c2ccccc2)cc1`: the photoluminescence quantum yield came out at 0.264 (in Cc1ccccc1) and 0.93 (in c1ccc(-n2c(-c3c(-n4c5ccccc5c5ccccc54)cccc3-n3c4ccccc4c4ccccc43)nc3ccccc32)cc1).
Take `O=C(O)COc1ccc2[nH]c3c(c2c1)CCCC3=O`: the photoluminescence quantum yield runs as follows: (in C1CCOC1) 0.01; (in C1COCCO1) 0.007; (in CC#N) 0.024; (in CCCCCCCCCCCCO) 0.012; (in CCCCCCCCCCO) 0.009; (in CCCCCCCCO) 0.017. Moreover, the photoluminescence quantum yield by setting is: (in CCCCCCO) 0.016; (in CCCCO) 0.012; (in CCO) 0.017; (in CCOC(C)=O) 0.018; (in CN(C)C=O) 0.07; (in CO) 0.051. Besides, the photoluminescence quantum yield was found to be 0.087 (in CS(C)=O), 0.026 (in Cc1ccccc1), 0.011 (in O) and 0.006 (in c1ccccc1).
For `CCCN1/C(=C/C=C(/C=C/C2=[N+](CCC)c3ccccc3C2(C)C)c2cc[n+](C)cc2)C(C)(C)c2ccccc21`, the photoluminescence quantum yield (in CO) came to 0.14, the photoluminescence quantum yield (in CS(C)=O) was 0.12 and the photoluminescence quantum yield (in O) turned out to be 0.02.
The compound `CN(C)c1cc(-c2ccc(C#Cc3ccncc3)cc2)cc2ccccc12` gave a photoluminescence quantum yield (in ClCCl) of 0.83.
Compound `c1ccc([B-]2(c3ccccc3)Oc3ccc4ccccc4c3-c3c4ccccc4cn[n+]32)cc1` returned a photoluminescence quantum yield (in Cc1ccccc1) of 0.15.
Compound `CCn1c2ccccc2oc2c(C#N)c3oc4ccccc4oc3c(C#N)c21` had a photoluminescence quantum yield (in ClC(Cl)Cl) of 0.34.
As to `O=C1C2=C3c4ccsc4C=CN3C(=O)C2=C2c3ccsc3C=CN12`, the photoluminescence quantum yield runs as follows: (in CN(C)C=O) 0.73; (in ClC(Cl)Cl) 0.8.
As to `CN(C)c1ccc(/C=C/c2nc3cc(Br)ccc3nc2-c2ccccc2)cc1`, the photoluminescence quantum yield is 0.14 (in C1COCCO1), 0.01 (in CC#N) and 0.17 (in ClCCl).
Consider `[O-][n+]1c(-c2ccccc2)cc(N2CCOCC2)nc1/C=C/c1ccccc1`, for which the photoluminescence quantum yield (in ClCCl) amounted to 0.2.
Regarding `CC1(C)c2ccccc2N(c2ccc(C(=O)/C=C(\O)c3ccc(N4c5ccccc5C(C)(C)c5ccccc54)cc3)cc2)c2ccccc21`, for the setting “in c1ccc2c(c1)c1ccccc1n2-c1ccc(-c2ccc(-n3c4ccccc4c4ccccc43)cc2)cc1”, the photoluminescence quantum yield is 0.86.
Take `O=c1c2ccccc2sc2ccccc12`: the photoluminescence quantum yield (in C1CCOC1) is 0.012; the photoluminescence quantum yield (in C1COCCO1) is 0.015; the photoluminescence quantum yield (in CC#N) stood at 0.066; the photoluminescence quantum yield (in CC(C)=O) is 0.024; the photoluminescence quantum yield (in CC(C)O) stood at 0.14; the photoluminescence quantum yield (in CCCCOC(C)=O) amounted to 0.0078. Also, the photoluminescence quantum yield runs as follows: (in CO) 0.25; (in OCCO) 0.41; (in c1ccccc1) 0.012.
